{"source": "patent US20080207614A1", "about": "“QUINAZOLINE DERIVATIVES FOR THE TREATMENT AND PREVENTION OF DIABETES AND OBESITY” (SK CHEMICALS CO., LTD., priority 2004, published 2008)"}
{"tested_on": "C2C12 muscle cells", "assay": "Analysis of glucose absorption (2-deoxyglucose) in differentiated C2C12 muscle cells", "assay_type": "cell-based", "conditions": "test materials 10 μM, times relative to control group", "in_short": "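Uptake of 0.2 μCi 2-deoxyglucose over 20 min, counted radiometrically in lysed cells. Before tracer, compounds (10 μM) were applied for 30 min to C2C12 cells differentiated 6 days in 1% serum and equilibrated 3 h in 5 mM glucose KRB.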"}
{"smiles": "FC(F)(F)c1cccc(CNc2nc(-c3ccncc3)nc3ccccc23)c1", "note": "[Compound 250, (2-Pyridino-4-ylquinazolino-4-yl)-(3-trifluoromethylbenzyl)-amine]", "Glucose absorption": 1.3}
{"smiles": "c1ccc(CCNc2nc(-c3ccncc3)nc3ccccc23)cc1", "note": "[Compound 251, Phenethyl-(2-pyridino-4-ylquinazolino-4-yl)-amine]", "Glucose absorption": 0.6}
{"smiles": "c1ccc(CCCCNc2nc(-c3ccncc3)nc3ccccc23)cc1", "note": "[Compound 252, (4-Phenylbutyl)-(2-pyridino-4-ylquinazolino-4-yl)-amine]", "Glucose absorption": 0.9}
{"smiles": "c1ccc2c(CNc3nc(-c4ccncc4)nc4ccccc34)cccc2c1", "note": "[Compound 253, Naphthaleno-1-ylmethyl-(2-pyridino-4-ylquinazolino-4-yl)-amine]", "Glucose absorption": 1.3}
{"smiles": "c1ccc2c(NCc3ccc4c(c3)OCO4)nc(-c3ccncc3)nc2c1", "note": "[Compound 254, Benzo[1,3]dioxol-5-ylmethyl-(2-pyridino-4-ylquinazolino-4-yl)-amine]", "Glucose absorption": 1.4}
{"smiles": "Fc1cccc(CNc2nc(-c3ccncc3)nc3ccccc23)c1", "note": "[Compound 255, (3-Fluorobenzyl)-(2-pyridino-4-ylquinazolino-4-yl)-amine]", "Glucose absorption": 1.3}
{"smiles": "Fc1cccc(CCNc2nc(-c3ccncc3)nc3ccccc23)c1", "note": "[Compound 256, [2-(3-Fluorophenyl)-ethyl]-(2-pyridino-4-ylquinazolino-4-yl)-amine]", "Glucose absorption": 0.6}
{"smiles": "OCCOCCNc1nc(-c2ccncc2)nc2ccccc12", "note": "[Compound 257, 2-[2-(2-Pyridino-4-ylquinazolino-4-ylamino)-ethoxy]-ethanol]", "Glucose absorption": 1.4}
{"smiles": "OCCNc1nc(-c2ccncc2)nc2ccccc12", "note": "[Compound 258, 2-(2-Pyridino-4-ylquinazolino-4-ylamino)-ethanol]", "Glucose absorption": 1.3}
{"smiles": "Clc1ccc(-c2nc(NCc3ccccc3)c3ccccc3n2)cc1", "note": "[Compound 259, Benzyl-[2-(4-chlorophenyl)-quinazolino-4-yl]-amine]", "Glucose absorption": 1.4}
{"smiles": "COc1cccc(CNc2nc(-c3ccc(Cl)cc3)nc3ccccc23)c1", "note": "[Compound 260, [2-(4-chlorophenyl)-quinazolino-4-yl]-(3-methoxybenzyl)-amine]", "Glucose absorption": 1.4}
{"smiles": "COc1ccc(CNc2nc(-c3ccc(Cl)cc3)nc3ccccc23)cc1", "note": "[Compound 261, [2-(4-Chlorophenyl)-quinazolino-4-yl]-(4-methoxybenzyl)-amine]", "Glucose absorption": 1.1}
{"smiles": "FC(F)(F)c1cccc(CNc2nc(-c3ccc(Cl)cc3)nc3ccccc23)c1", "note": "[Compound 262, [2-(4-Chlorophenyl)-quinazolino-4-yl]-(3-trifluoromethylbenzyl)-amine]", "Glucose absorption": 1.1}
{"smiles": "Clc1ccc(-c2nc(NCCc3ccccc3)c3ccccc3n2)cc1", "note": "[Compound 263, [2-(4-Chlorophenyl)-quinazolino-4-yl]-phenethylamine]", "Glucose absorption": 1.1}
{"smiles": "Clc1ccc(-c2nc(NCCCCc3ccccc3)c3ccccc3n2)cc1", "note": "[Compound 264, [2-(4-Chlorophenyl)-quinazolino-4-yl]-(4-phenylbutyl)-amine]", "Glucose absorption": 1.1}
{"smiles": "Clc1ccc(-c2nc(NCc3cccc4ccccc34)c3ccccc3n2)cc1", "note": "[Compound 265, [2-(4-Chlorophenyl)-quinazolino-4-yl]-naphthaleno-1-ylmethylamine]", "Glucose absorption": 1.1}
{"smiles": "Clc1ccc(-c2nc(NCc3ccc4c(c3)OCO4)c3ccccc3n2)cc1", "note": "[Compound 266, Benzo[1,3]dioxol-5-ylmethyl-[2-(4-chlorophenyl)-quinazolino-4-yl]-amine]", "Glucose absorption": 1.1}
{"smiles": "Fc1cccc(CNc2nc(-c3ccc(Cl)cc3)nc3ccccc23)c1", "note": "[Compound 267, [2-(4-Chlorophenyl)-quinazolino-4-yl]-(3-fluorobenzyl)-amine]", "Glucose absorption": 1.0}
{"smiles": "Fc1cccc(CCNc2nc(-c3ccc(Cl)cc3)nc3ccccc23)c1", "note": "[Compound 268, [2-(4-Chlorophenyl)-quinazolino-4-yl]-[2-(3-fluorophenyl)-ethyl]-amine]", "Glucose absorption": 1.1}
{"smiles": "OCCOCCNc1nc(-c2ccc(Cl)cc2)nc2ccccc12", "note": "[Compound 269, 2-{2-[2-(4-Chlorophenyl)-quinazolino-4-ylamino]-ethoxy}-ethanol]", "Glucose absorption": 1.2}
{"smiles": "OCCNc1nc(-c2ccc(Cl)cc2)nc2ccccc12", "note": "[Compound 270, 2-[2-(4-Chlorophenyl)-quinazolino-4-ylamino]-ethanol]", "Glucose absorption": 1.1}
{"smiles": "COc1ccc(CNc2nc(Cc3ccccc3)nc3ccccc23)cc1OC", "note": "[Compound 331, (2-Benzylquinazolino-4-yl)-(3,4-dimethoxybenzyl)-amine]", "Glucose absorption": 1.2}
{"smiles": "COc1cc(CNc2nc(Cc3ccccc3)nc3ccccc23)cc(OC)c1OC", "note": "[Compound 332, (2-Benzylquinazolino-4-yl)-(3,4,5-trimethoxybenzyl)-amine]", "Glucose absorption": 1.1}
{"smiles": "COc1ccc(CNc2nc(Cc3ccccc3)nc3ccccc23)c(OC)c1", "note": "[Compound 333, (2-Benzylquinazolino-4-yl)-(2,4-dimethoxybenzyl)-amine]", "Glucose absorption": 1.2}
{"smiles": "COc1ccc(OC)c(CNc2nc(Cc3ccccc3)nc3ccccc23)c1", "note": "[Compound 334, (2-Benzylquinazolino-4-yl)-(2,5-dimethoxybenzyl)-amine]", "Glucose absorption": 1.1}
{"smiles": "COc1cc(OC)c(CNc2nc(Cc3ccccc3)nc3ccccc23)c(OC)c1", "note": "[Compound 335, (2-Benzylquinazolino-4-yl)-(2,4,6-trimethoxybenzyl)-amine]", "Glucose absorption": 1.1}
{"smiles": "COc1cc(OC)c(CNc2nc(-c3ccccc3)nc3ccccc23)c(OC)c1", "note": "[Compound 337, (2-Phenylquinazolino-4-yl)-(2,4,6-trimethoxybenzyl)-amine]", "Glucose absorption": 1.3}
{"smiles": "c1coc(-c2nc(NCc3ccc4c(c3)OCO4)c3ccccc3n2)c1", "note": "[Compound 341, Benzo[1,3]dioxol-5-ylmethyl-(2-furano-2-ylquinazolino-4-yl)-amine]", "Glucose absorption": 0.8}
{"tested_on": "AMPK", "assay": "Measurement of AMPK activity by Western blot in C2C12 cells", "assay_type": "cell-based", "set-up": "key to AMPK activity (degree of phosphorylation of serine-79 and threonine-172): fold increase in threonine-172 phosphorylation", "conditions": "10 μM for 50 minutes, no superscript: Western blot of serine-79 and threonine-172 phosphorylation", "protocol": "C2C12 cells were cultured and differentiated in the same manner as in Experimental Example 1. Treatment with the test materials was also performed in the same manner as in Experimental Example 1 (10 μM for 50 minutes). The culture medium was removed and the cells were washed for 2 times with PBS and protein extracts were obtained using a lysis buffer (50 mM tris-HCl, pH 7.4, 1% NP-40, 0.25% sodium deoxycholate, 150 mM NaCl, 1 mM EDTA, 1 mM PMSF, 1 mM sodium o-vanadate, 1 mM NaF, 1 μg/mL apronitin, 1 μg/mL leu-peptin, 1 μg/mL pepstatin). The AMPK activity was determined from Western blot analysis of the degree of phosphorylation of serine-79 […] acetyl CoA carboxylase and the degree of phosphorylation of threonine-172. The amount of ERK (extracellular signal regulated protein kinase) was confirmed by Western blot in order to quantify the proteins.\nThe result of Western blot analysis is given in Table 3 below, wherein “strong” means that the degree of phosphorylation of threonine-172 increased by 3 times or more, “mild” means that the degree of phosphorylation of threonine-172 increased by 1 to 3 times and “weak” means that the degree of phosphorylation of threonine-172 increased by less than 1 time."}
{"smiles": "COc1ccccc1CNc1nc(N2CCOCC2)nc2ccccc12", "note": "[Compound 277, (2-Methoxybenzyl)-(2-morpholino-4-ylquinazolino-4-yl)-amine]", "AMPK activity (degree of phosphorylation of serine-79 and threonine-172)": 1.3}
{"smiles": "COc1ccccc1CNc1nc(N2CCN(C)CC2)nc2ccccc12", "note": "[Compound 278, (2-Methoxybenzyl)-[2-(4-methylpiperazino-1-yl)-quinazolino-4-yl]-amine]", "AMPK activity (degree of phosphorylation of serine-79 and threonine-172)": 1.2}
{"smiles": "COc1cccc(CNc2nc(N3CCCC3)nc3ccccc23)c1", "note": "[Compound 279, (3-Methoxybenzyl)-(2-pyrrolidino-1-ylquinazolino-4-yl)-amine]", "AMPK activity (degree of phosphorylation of serine-79 and threonine-172)": 1.3}
{"smiles": "COc1cccc(CNc2nc(N3CCCCC3)nc3ccccc23)c1", "note": "[Compound 280, (3-Methoxybenzyl)-(2-piperidino-1-ylquinazolino-4-yl)-amine]", "AMPK activity (degree of phosphorylation of serine-79 and threonine-172)": 1.2}
{"smiles": "COc1cccc(CNc2nc(N3CCOCC3)nc3ccccc23)c1", "note": "[Compound 281, (3-Methoxybenzyl)-(2-morpholino-4-ylquinazolino-4-yl)-amine]", "AMPK activity (degree of phosphorylation of serine-79 and threonine-172)": 0.9}
{"smiles": "COc1cccc(CNc2nc(N3CCN(C)CC3)nc3ccccc23)c1", "note": "[Compound 282, (3-Methoxybenzyl)-[2-(4-methylpiperazino-1-yl)-quinazolino-4-yl]-amine]", "AMPK activity (degree of phosphorylation of serine-79 and threonine-172)": 0.9}
